Test results published in ChEMBL document CHEMBL1201862, “PubChem BioAssay data set” (2004).
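Compound exposure: 48 hours, 5 concentrations, 96-well plates. GI50 = concentration required for 50% inhibition of growth.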 The source made the active and inactive calls. No stated cut-off is given here; in the data, active = GI50 up to about 1.1 µM and inactive = higher.

What was measured:
Assay in all cases: NCI anticancer screen, dose series, 48 h
ACHN = tested on: ACHN
BT-549 = tested on: BT-549
CAKI-1 = tested on: CAKI-1
DU-145 = tested on: DU-145
HCC 2998 = tested on: HCC 2998
HOP-92 = tested on: HOP-92
KM12 = tested on: KM12
MCF7 = tested on: MCF7
MOLT-4 = tested on: MOLT-4
OVCAR-4 = tested on: OVCAR-4
RPMI-8226 = tested on: RPMI-8226
SK-MEL-2 = tested on: SK-MEL-2
SK-MEL-5 = tested on: SK-MEL-5
SNB-19 = tested on: SNB-19
SNB-75 = tested on: SNB-75
SW-620 = tested on: SW-620
U-251 = tested on: U-251
UACC-257 = tested on: UACC-257
UO-31 = tested on: UO-31

Measured: GI50

CC(C)(Oc1ccc(-c2cccc3ccccc23)cc1)C(=O)O
inactive: ACHN > 100 µM | BT-549 > 100 µM | CAKI-1 > 100 µM | DU-145 > 100 µM | HCC 2998 > 100 µM | HOP-92 > 100 µM | KM12 97.7 µM | MCF7 > 100 µM | MOLT-4 > 100 µM | OVCAR-4 > 100 µM | RPMI-8226 > 100 µM | SK-MEL-2 > 100 µM | SK-MEL-5 99.5 µM | SNB-19 > 100 µM | SNB-75 > 100 µM | SW-620 > 100 µM | U-251 > 100 µM | UACC-257 > 100 µM | UO-31 > 100 µM

CC(C)OC(=O)c1ccc(NCc2cc(O)ccc2O)cc1
active: RPMI-8226 0.483 µM
inactive: ACHN 3.6 µM | BT-549 2.38 µM | CAKI-1 1.28 µM | DU-145 6.11 µM | HCC 2998 11.1 µM | HOP-92 1.95 µM | KM12 3.38 µM | MCF7 1.66 µM | MOLT-4 1.39 µM | OVCAR-4 5.05 µM | SK-MEL-2 10.9 µM | SK-MEL-5 3.29 µM | SNB-19 3.3 µM | SNB-75 4.61 µM | SW-620 4.86 µM | U-251 4.32 µM | UACC-257 10.3 µM | UO-31 1.51 µM

COc1cc(C(=O)N(Cc2cccnc2)C(=S)N(Cc2cccnc2)C(=O)c2cc(OC)c(OC)c(OC)c2)cc(OC)c1OC
inactive: ACHN > 100 µM | BT-549 28.5 µM | CAKI-1 30.4 µM | DU-145 52.2 µM | HCC 2998 24.3 µM | HOP-92 15.1 µM | KM12 22.4 µM | MCF7 19.9 µM | MOLT-4 54.2 µM | OVCAR-4 17.8 µM | RPMI-8226 56.6 µM | SK-MEL-5 76.9 µM | SNB-19 > 100 µM | SNB-75 21.4 µM | SW-620 32.9 µM | UACC-257 70 µM | UO-31 49.8 µM

Cc1cc2c(cc1Cl)Sc1nnc(Nc3ccccc3)n1S2(=O)=O
inactive: ACHN 12.2 µM | BT-549 7.78 µM | CAKI-1 11.1 µM | DU-145 18.2 µM | HCC 2998 3.96 µM | HOP-92 5.57 µM | KM12 12 µM | MCF7 8.02 µM | MOLT-4 3.07 µM | OVCAR-4 6.89 µM | RPMI-8226 2.61 µM | SK-MEL-2 4.84 µM | SK-MEL-5 11.7 µM | SNB-75 5.47 µM | SW-620 7.87 µM | U-251 3.75 µM | UACC-257 16.6 µM | UO-31 13.4 µM

CN1C(=O)c2c(ccc3c2OCO3)C2C(O)Cc3cc4c(cc3C21)OCO4 (stereo unspecified)
inactive: ACHN 7.21 µM | BT-549 13.8 µM | CAKI-1 4.76 µM | DU-145 3.65 µM | HCC 2998 4.06 µM | HOP-92 5.79 µM | KM12 3.15 µM | MCF7 7.5 µM | MOLT-4 4.04 µM | OVCAR-4 > 100 µM | RPMI-8226 3.83 µM | SK-MEL-2 2.47 µM | SK-MEL-5 5.51 µM | SNB-19 3.21 µM | SNB-75 1.89 µM | SW-620 3.79 µM | U-251 4.29 µM | UO-31 6.37 µM

CC(=O)O[C@@H]1CC[C@@]2(C)C(CC[C@H]3[C@@H]4CC[C@H]([C@H](C)CCc5nc6cc(C)ccc6[nH]5)[C@@]4(C)CC[C@@H]32)C1 (stereo partly specified)
inactive: ACHN 99.3 µM | BT-549 29.8 µM | CAKI-1 > 100 µM | DU-145 45.7 µM | HCC 2998 71.3 µM | HOP-92 69.5 µM | KM12 12.7 µM | MCF7 38.4 µM | MOLT-4 28.1 µM | OVCAR-4 9.77 µM | RPMI-8226 8.89 µM | SK-MEL-2 31 µM | SK-MEL-5 25.9 µM | SNB-19 > 100 µM | SNB-75 6.04 µM | SW-620 > 100 µM | U-251 18.2 µM | UACC-257 38.7 µM | UO-31 6.38 µM

Cc1cccc2c1CC(C1OC(=O)c3c(C)cccc31)C2=O (stereo unspecified)
inactive: ACHN > 100 µM | BT-549 > 100 µM | CAKI-1 > 100 µM | DU-145 > 100 µM | HCC 2998 > 100 µM | HOP-92 > 100 µM | KM12 > 100 µM | MCF7 > 100 µM | MOLT-4 > 100 µM | OVCAR-4 > 100 µM | RPMI-8226 88.5 µM | SK-MEL-2 > 100 µM | SK-MEL-5 > 100 µM | SNB-19 > 100 µM | SNB-75 > 100 µM | SW-620 > 100 µM | U-251 > 100 µM | UACC-257 > 100 µM | UO-31 > 100 µM

O=C(O)c1cccc(Nc2c(C(=O)O)cccc2[N+](=O)[O-])c1
inactive: ACHN > 100 µM | BT-549 > 100 µM | CAKI-1 > 100 µM | DU-145 > 100 µM | HCC 2998 > 100 µM | HOP-92 > 100 µM | KM12 57.4 µM | MCF7 > 100 µM | MOLT-4 > 100 µM | OVCAR-4 > 100 µM | RPMI-8226 > 100 µM | SK-MEL-2 > 100 µM | SK-MEL-5 > 100 µM | SNB-19 > 100 µM | SNB-75 > 100 µM | UACC-257 > 100 µM | UO-31 > 100 µM
